Drawing on ChEMBL document CHEMBL1138482 (J Med Chem, 2009), this text covers relative binding affinity (RBA) and IC50 for eight compounds.

Test [1] addresses Folate receptor alpha (Homo sapiens) (UniProt P15328). Nature of the test: Displacement of [3H]folic acid from human folate receptor alpha in chinese hamster RT16 cells assessed as relative binding affinity relative to folic acid. In kind it is cell-based. On the technique in general: In a radioligand displacement assay an active substance lowers the binding of a labelled ligand.

Test [2] can be described thus: Antiproliferative activity against chinese hamster PC43-10 cells expressing human reduced folate carrier after 96 hrs by celltiter-blue cell viability assay. The conditions noted are these: Cricetulus griseus, PC43-10, 96 h. For orientation: The colour change of resazurin is a common sign of viable cells or microbes.
Test [3] can be described thus: Antiproliferative activity against chinese hamster MTXRII-OuaR2-4 cells expressing human reduced folate carrier after 96 hrs by celltiter-blue cell viability assay. To be noted: Cricetulus griseus.
Test [4] is described as follows: Antiproliferative activity against chinese hamster MTXRII-OuaR2-4 cells expressing human proton-coupled folate transporter after 96 hrs by celltiter-blue cell viability assay. To be noted: Cricetulus griseus.
Test [5] can be described thus: Antiproliferative activity against chinese hamster MTXRII-OuaR2-4 cells expressing empty pCDNA3.1 after 96 hrs by celltiter-blue cell viability assay. The conditions noted are these: Cricetulus griseus.
The nature of test [6]: Antiproliferative activity against chinese hamster RT16 cells expressing human folate receptor alpha after 96 hrs by celltiter-blue cell viability assay in presence of folic acid. The conditions noted are these: Cricetulus griseus, RT16, 96 h.
Test [7] can be described thus: Antiproliferative activity against chinese hamster D4 cells expressing human folate receptor beta after 96 hrs by celltiter-blue cell viability assay in presence of folic acid. The conditions noted are these: Cricetulus griseus, D4, 96 h.
For test [8], the system named is KB. Nature of the test: Antiproliferative activity against human KB cells expressing human reduced folate carrier/folate receptor alpha after 96 hrs by celltiter-blue cell viability assay in presence of folic acid.
Test [9] concerns IGROV-1. In words: Antiproliferative activity against human IGROV1 cells expressing human reduced folate carrier/folate receptor alpha after 96 hrs by celltiter-blue cell viability assay in presence of folic acid. The conditions noted are these: IGROV-1, 96 h.
The target of test [10] is Folate receptor beta (Homo sapiens) (UniProt P14207). In words: Displacement of [3H]folic acid from human folate receptor beta in chinese hamster D4 cells assessed as relative binding affinity relative to folic acid. In kind it is cell-based.
Chain of Folate receptor beta (Homo sapiens) (P14207 17-230 limits assumed): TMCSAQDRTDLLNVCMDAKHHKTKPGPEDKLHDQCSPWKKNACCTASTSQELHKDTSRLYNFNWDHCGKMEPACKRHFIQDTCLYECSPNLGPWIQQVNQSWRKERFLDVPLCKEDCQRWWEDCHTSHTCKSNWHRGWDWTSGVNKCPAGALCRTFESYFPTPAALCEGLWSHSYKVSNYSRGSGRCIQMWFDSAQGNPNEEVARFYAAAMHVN
Test [11] is described as follows: Antiproliferative activity against chinese hamster RT16 cells expressing human folate receptor alpha after 96 hrs by celltiter-blue cell viability assay. To be noted: Cricetulus griseus, RT16, 96 h.
The nature of test [12]: Antiproliferative activity against chinese hamster D4 cells expressing human folate receptor beta after 96 hrs by celltiter-blue cell viability assay. To be noted: Cricetulus griseus, D4, 96 h.
Test [13] has as its system IGROV-1. In words: Antiproliferative activity against human IGROV1 cells expressing human reduced folate carrier/folate receptor alpha after 96 hrs by celltiter-blue cell viability assay. The conditions noted are these: IGROV-1, 96 h.
Test [14] deals with T1, Trifunctional purine biosynthetic protein adenosine-3 (Homo sapiens, UniProt P22102).
T1 sequence (P22102 whole entry): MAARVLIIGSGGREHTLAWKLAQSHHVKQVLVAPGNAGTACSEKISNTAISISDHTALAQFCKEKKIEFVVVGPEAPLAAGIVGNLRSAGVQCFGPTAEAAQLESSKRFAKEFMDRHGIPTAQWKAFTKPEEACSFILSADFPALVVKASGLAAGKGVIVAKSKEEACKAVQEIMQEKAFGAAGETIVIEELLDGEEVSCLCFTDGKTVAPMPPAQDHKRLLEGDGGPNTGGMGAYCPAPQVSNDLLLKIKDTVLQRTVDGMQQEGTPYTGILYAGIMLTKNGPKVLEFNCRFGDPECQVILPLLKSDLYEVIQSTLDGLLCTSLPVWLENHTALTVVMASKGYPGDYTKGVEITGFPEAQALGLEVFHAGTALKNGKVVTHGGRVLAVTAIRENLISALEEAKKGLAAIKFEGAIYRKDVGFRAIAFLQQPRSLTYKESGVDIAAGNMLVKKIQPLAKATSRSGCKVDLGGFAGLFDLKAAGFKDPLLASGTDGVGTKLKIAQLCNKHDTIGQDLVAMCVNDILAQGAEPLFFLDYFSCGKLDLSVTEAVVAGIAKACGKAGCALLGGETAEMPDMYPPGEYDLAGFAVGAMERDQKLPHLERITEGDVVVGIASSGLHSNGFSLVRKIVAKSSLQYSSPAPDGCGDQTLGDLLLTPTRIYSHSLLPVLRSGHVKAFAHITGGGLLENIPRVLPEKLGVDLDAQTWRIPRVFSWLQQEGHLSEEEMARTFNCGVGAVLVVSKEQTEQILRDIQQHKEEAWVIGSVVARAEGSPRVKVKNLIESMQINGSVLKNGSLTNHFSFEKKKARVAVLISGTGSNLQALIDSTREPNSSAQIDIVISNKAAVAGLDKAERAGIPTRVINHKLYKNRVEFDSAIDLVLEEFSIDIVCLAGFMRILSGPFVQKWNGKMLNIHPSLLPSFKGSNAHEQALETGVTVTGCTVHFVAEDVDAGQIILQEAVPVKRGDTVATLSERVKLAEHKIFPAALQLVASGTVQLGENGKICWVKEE
In words: Inhibition of GARFTase in human KB cells assessed as inhibition of incorporation of [14C]glycine into [14C]formyl GAR after 30 mins in presence of azaserine.

The test system of test [15] is KB. Nature of the test: Antiproliferative activity against human KB cells expressing human reduced folate carrier/folate receptor alpha after 96 hrs by celltiter-blue cell viability assay.
In test [16] the target is T2, Trifunctional purine biosynthetic protein adenosine-3 (Mus musculus, UniProt Q64737).
T2 sequence (Q64737 whole entry): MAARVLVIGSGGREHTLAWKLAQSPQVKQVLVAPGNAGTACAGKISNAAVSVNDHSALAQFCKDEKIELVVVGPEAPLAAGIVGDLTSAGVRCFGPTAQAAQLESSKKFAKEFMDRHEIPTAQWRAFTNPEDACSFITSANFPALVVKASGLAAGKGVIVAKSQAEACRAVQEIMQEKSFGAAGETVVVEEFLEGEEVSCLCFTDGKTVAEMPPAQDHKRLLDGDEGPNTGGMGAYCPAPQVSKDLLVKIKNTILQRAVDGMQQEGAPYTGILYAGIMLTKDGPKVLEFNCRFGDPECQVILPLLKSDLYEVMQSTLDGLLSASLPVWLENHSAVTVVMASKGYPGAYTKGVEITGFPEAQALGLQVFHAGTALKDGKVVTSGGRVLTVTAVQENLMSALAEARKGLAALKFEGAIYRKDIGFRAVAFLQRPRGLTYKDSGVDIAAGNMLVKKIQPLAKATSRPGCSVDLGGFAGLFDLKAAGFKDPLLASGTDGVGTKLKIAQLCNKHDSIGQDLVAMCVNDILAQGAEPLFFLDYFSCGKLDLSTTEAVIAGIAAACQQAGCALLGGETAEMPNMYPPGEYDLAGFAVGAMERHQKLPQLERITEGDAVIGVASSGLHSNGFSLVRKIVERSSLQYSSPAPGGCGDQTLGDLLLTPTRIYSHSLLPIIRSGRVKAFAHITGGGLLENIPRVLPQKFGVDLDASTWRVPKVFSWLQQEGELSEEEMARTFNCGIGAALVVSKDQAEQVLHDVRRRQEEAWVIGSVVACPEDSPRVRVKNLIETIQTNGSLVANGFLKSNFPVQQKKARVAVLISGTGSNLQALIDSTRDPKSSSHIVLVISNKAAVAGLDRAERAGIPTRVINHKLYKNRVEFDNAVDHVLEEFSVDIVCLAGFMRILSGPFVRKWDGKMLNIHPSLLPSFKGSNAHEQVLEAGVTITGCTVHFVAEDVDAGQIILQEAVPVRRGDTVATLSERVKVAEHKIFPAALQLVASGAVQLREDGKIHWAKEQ
In words: Inhibition of mouse recombinant GARFTase.

One may read the IC50 as the concentration at which inhibition is half-maximal.

Some results are limits rather than exact numbers.

Chain of Folate receptor alpha (Homo sapiens) (P15328 25-234 limits assumed): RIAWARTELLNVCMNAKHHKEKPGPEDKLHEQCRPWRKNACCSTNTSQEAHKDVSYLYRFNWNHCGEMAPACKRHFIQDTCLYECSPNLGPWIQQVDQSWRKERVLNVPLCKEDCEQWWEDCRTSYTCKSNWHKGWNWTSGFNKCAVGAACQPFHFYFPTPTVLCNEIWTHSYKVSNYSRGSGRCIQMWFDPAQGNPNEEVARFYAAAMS

As to `CN(Cc1cnc2nc(N)nc(N)c2n1)c1ccc(C(=O)N[C@@H](CCC(=O)O)C(=O)O)cc1`, the relative binding affinity (RBA) in test [1] came to 0.8.

For the compound `Nc1nc2sc(CCCCc3ccc(C(=O)N[C@@H](CCC(=O)O)C(=O)O)cc3)cc2c(=O)[nH]1`, the IC50 in test [2], in [3], in test [4], in test [5], in test [6] and in [7] was above 1 µM in each case. The IC50 in the test with KB [8] and with IGROV-1 [9] was above 1 µM each time. Moreover, the relative binding affinity (RBA) in test [1] and in test [10] was above 0.8 each time.

On to `Nc1nc2sc(CCCCCCc3ccc(C(=O)N[C@@H](CCC(=O)O)C(=O)O)cc3)cc2c(=O)[nH]1`, for which the half-inhibitory concentration (IC50) in test [2] is above 1 µM; in test [3], above 1 µM; in test [4], above 1 µM; in test [5] it was above 1 µM; in test [11] it was 0.108 µM; in [6] it was above 1 µM. Moreover, the half-maximal inhibitory concentration (IC50) in test [12] was 0.364 µM; in test [7] it was above 1 µM; in the test with KB [8] it was above 1 µM; in the test on IGROV-1 [13], 0.334 µM; in the test with IGROV-1 [9] it was above 1 µM; in [14] it was 0.0266 µM. The relative binding affinity (RBA) in test [1] and in test [10] was above 0.8 in each case.

As to `Nc1nc2sc(CCc3ccc(C(=O)N[C@@H](CCC(=O)O)C(=O)O)cc3)cc2c(=O)[nH]1`, the IC50 in test [2], in [3], in test [4], in [5], in test [11] and in test [6] was above 1 µM in each case. In addition, the half-inhibitory concentration (IC50) (in [12]; in test [7]; with KB [15]; in the test on KB [8]; in the test with IGROV-1 [13]; in the test on IGROV-1 [9]) was above 1 µM in each case. The IC50 in [16] is above 20 µM; in [14] it was 0.0323 µM. Further, the relative binding affinity (RBA) in test [1] is 0.25; in test [10] it was below 0.01.

For `Nc1nc2sc(CCCCCc3ccc(C(=O)N[C@@H](CCC(=O)O)C(=O)O)cc3)cc2c(=O)[nH]1`, the IC50 in test [2], in test [3], in test [4], in test [5], in test [6] and in [7] was above 1 µM in each case. The half-maximal inhibitory concentration (IC50) is 0.132 µM in the test with KB [15], above 1 µM in the test on KB [8], above 1 µM in the test on IGROV-1 [9] and 0.0236 µM in test [14]. Also, the relative binding affinity (RBA) in [1] and in test [10] was above 0.8 throughout.

Consider `Nc1nc2sc(CCCCCCCc3ccc(C(=O)N[C@@H](CCC(=O)O)C(=O)O)cc3)cc2c(=O)[nH]1`, for which the IC50 in test [2], in [3], in [4], in [5], in test [11] and in [6] was above 1 µM in each case. For the same compound, the IC50 (in [12]; in test [7]; in the test with KB [15]; in the test with KB [8]; with IGROV-1 [13]; in the test on IGROV-1 [9]) was above 1 µM each time. Moreover, the relative binding affinity (RBA) in test [1] and in [10] was above 0.8 in each case.

For the compound `Nc1nc2sc(CCCc3ccc(C(=O)N[C@@H](CCC(=O)O)C(=O)O)cc3)cc2c(=O)[nH]1`, the IC50 in test [2] was above 1 µM; in test [3] it was above 1 µM; in [4], above 1 µM; in test [5], above 1 µM; in test [6], above 1 µM; in test [12], 0.112 µM. Also, the half-maximal inhibitory concentration (IC50) is above 1 µM in [7], above 1 µM in the test with KB [8], above 1 µM in the test with IGROV-1 [9] and 8.52 µM in test [16]. Moreover, the relative binding affinity (RBA) in test [1] and in test [10] was above 0.8 in each case.

In the case of `Nc1nc2sc(CCCCCCCCc3ccc(C(=O)N[C@@H](CCC(=O)O)C(=O)O)cc3)cc2c(=O)[nH]1`, the IC50 in [2], in test [3], in [4], in test [5], in [11] and in [6] was above 1 µM in each case. The half-maximal inhibitory concentration (IC50) (in test [12]; in [7]; in the test on KB [15]; in the test on KB [8]; in the test on IGROV-1 [13]; in the test with IGROV-1 [9]) was above 1 µM each time. In addition, the relative binding affinity (RBA) in test [1] and in test [10] was above 0.8 each time.
